The test system of series [1] is HORVS. Put plainly: Greenhouse trial: PE application vs application 7 days prior to sowing (test method 6). The settings on record: g of AS/ha: (A) 90, (B) 1200, (C) 140, mixture 90 + 1200 + 140. The format is in vivo, Hordeum vulgare, summer barley. The method, then:
(§1) In the standard design of the test, seeds of various broad-leaved weed and weed grass biotypes (origins) were sown in a 8-13 cm diameter pot filled with natural soil of a standard field soil (loamy silt; non-sterile) and covered with a covering soil layer of about 1 cm. The pots were then cultivated in a greenhouse (12-16 h of light, temperature day 20-22° C., night 15-18° C.) until the time of application. The pots were treated on a laboratory track sprayer with spray liquors comprising the compositions according to the invention, mixtures of the prior art or components used individually. Application of the active compounds or active compound combinations formulated as WG, WP, EC or otherwise was carried out at the appropriate growth stages of the plants. The application rate for the spray application was 100-600 l of water/ha. After the treatment, the plants were returned to the greenhouses.
(§2) About 3 weeks after the application, the soil action or/and foliar action was assessed visually according to a scale of 0-100% in comparison to an untreated comparative group: 0%=no noticeable effect compared to the untreated comparative group; 100%=full effect compared to the untreated comparative group. […]

Series [2] deals with HORVS. Put plainly: Greenhouse trial: PO application (test methods 2 and 5). The format is in vivo, Hordeum vulgare, summer barley. Particulars: g of AS/ha: (A) 120, (B) 1600, (C) 140, (A)+(B)+(C) 120 + 1600 + 140. The protocol:
as §1, §2

Series [3] deals with LOLPE. Put plainly: Greenhouse trial: PE application vs application 7 days prior to sowing (test method 6). The class given is in vivo, Lolium perenne. The method, then: as §1
(§3) About 3 weeks after the application, the soil action or/and foliar action was assessed visually according to a scale of 0-100% in comparison to an untreated comparative group: 0%=no noticeable effect compared to the untreated comparative group; 100%=full effect compared to the untreated comparative group.
(§4) (notes: the term “seeds” also includes vegetative propagation forms such as, for example, rhizome pieces; abbreviations used: h light=hours of illumination, g of AS/ha=gram of active substance per hectare, I/ha=liter per hectare, S=sensitive, R=resistant) • 1. Pre-emergence action against weeds: seeds of various broad-leaved weed and weed grass biotypes (origins) were sown in a 8-13 cm diameter pot filled with natural soil of a standard field soil (loamy silt; non-sterile) and covered with a covering soil layer of about 1 cm. The pots were then cultivated in a greenhouse (12-16 h of light, temperature day 20-22° C., night 15-18° C.) until the time of application. The pots were treated at the BBCH stage 00-10 of the seeds/plants on a laboratory track sprayer with spray liquors comprising the compositions according to the invention, mixtures or components used individually, as WG, WP, EC or other formulations. The application rate for the spray application was 100-600 l of water/ha. After the treatment, the plants were returned to the greenhouses and, when required, treated with fertilizer and watered. • 2. Post-emergence action against weeds: seeds of various broad-leaved weed and weed grass biotypes (origins) were sown in a 8-13 cm diameter pot filled with natural soil of a standard field soil (loamy silt; non-sterile) and covered with a covering soil layer of about 1 cm. The pots were then cultivated in a greenhouse (12-16 h of light, temperature day 20-22° C., night 15-18° C.) until the time of application. The pots were treated at various BBCH stages between 11-25 of the seeds/plants, i.e. generally between two to three weeks after the start of the cultivation, on a laboratory track sprayer with spray liquors comprising the compositions according to the invention, mixtures or components used individually, as WG, WP, EC or other formulations. The application rate for the spray application was 100-600 l of water/ha. After the treatment, the plants were returned to the greenhouses and, when required, treated with fertilizer and watered. • 3. Pre-emergence action against weeds with and without incorporation of active compound: seeds of various broad-leaved weed and weed grass biotypes (origins) were sown in a 8-13 cm diameter pot filled with natural soil of a standard field soil (loamy silt; non-sterile). […]

The subject of series [4] is LOLPE. Put plainly: Greenhouse trial: different soil types (test method 8). The format is in vivo, Lolium perenne. The settings on record: g of AS/ha: (A) 120, (B) 1200, (C) 90, (A)+(B)+(C) 120 + 1200 + 90. The method, then: as §1, §3, §4

Regarding `CSc1nnc(C(C)(C)C)c(=O)n1N` [(C) metribuzin, 4-amino-6-(1,1-dimethylethyl)-3-(methylthio)-1,2,4-triazon-5(4H)-one], the “activity HORVS (crop plant)” value in series [1] is given as 50%; in series [2], 70%. The “activity LOLPE” value in series [3] (PE application, g of AS/ha: (A) 90, (B) 1200, (C) 140, mixture 90 + 1200 + 140) is reported as 70%; in series [3] (application 7 days prior to sowing, g of AS/ha: (A) 90, (B) 1200, (C) 140, (A)+(B)+(C) 90 + 1200 + 140), 0%. For the same compound, the “activity LOLPE IU soil” value in series [4] (IU soil) worked out at 75%. Further, in series [4] (IU/EC73 soil), the “activity LOLPE IU/EC73 soil” value worked out at 5%.

The record behind these values is patent US20110152088A1, “Herbicidal Composition Comprising Flufenacet” (BAYER CROPSCIENCE AG, priority 2009, published 2011).
